Results: paper PMC9508196 (Scientific Reports, 2022)
≈ marks a conversion by molar mass, not a printed value. Like-named read-outs stand apart in the source and are kept apart here.

Tests used:
[1] = test system: A. baumannii D-10.1–1 (MDR); type: cell-based, Acinetobacter baumannii; details: clinical isolate D-10.1–1 (MDR), urine
Text: (§1) Ten strains of both Gram-positive and -negative bacteria, including Staphylococcus aureus ATCC 25,923, S. epidermidis ATCC 12,228, Bacillus cereus ATCC 11,778, Listeria monocytogenes 10403S, Salmonella typhimurium ATCC 13,311, Pseudomonas aeruginosa ATCC 27,853, Shigella sonnei ATCC 11,060, A. baumannii ATCC 19,606, Escherichia coli ATCC 25,922 and E. coli O157:H7, were used in this study. Eight clinical isolates of multidrug-resistant (MDR) and extensively drug-resistant (XDR) A. baumannii, isolated from human (blood, sputum, respiratory sample, sterile site sample and urine), were kindly provided by Asst. Prof. Dr. Sakawrat Kanthawong (Faculty of Medicine, Khon Kaen University, Thailand) (Table S1). All bacterial strains, excluding L. monocytogenes 10403S and E. coli, were cultured in tryptic soy broth (TSB). L. monocytogenes was grown in TSB supplemented with 0.6% yeast extract (TSB-YE), and E. coli was cultured in Luria broth (LB). All of bacteria were cultured at 37 °C with continuous shaking at 220 rpm.
(§2) Minimum inhibitory concentration (MIC) of peptides and antibiotics was assessed by a modified version of the broth microdilution method from the Clinical and Laboratory Standards Institute (CLSI) as previously described. In brief, mid-log phase growths of microbial strains were cultured in Müeller-Hinton broth (MHB) with an initial inoculum of 2–8 × 10^5 CFU/mL. Bacteria suspensions were incubated in sterile 96-well plates with test agents at desired concentrations. […] Minimum bactericidal concentration (MBC) determination was performed using a modified version of the colony count assay. In brief, fifty µl of all non-turbid wells from MIC experiments were spread on agar plates. The MBC value was defined as the lowest concentration of peptides with no colony growth on the plate. All assays were performed in triplicate.

[2] = test system: A. baumannii D-10.1–2 (MDR); type: cell-based, Acinetobacter baumannii; details: clinical isolate D-10.1–2 (MDR), urine
Text: as §1, §2

[3] = test system: A. baumannii A-8.2–1 (XDR); experiment: microbe, parasite or virus in culture; type: cell-based, Acinetobacter baumannii
Text: as §1, §2

[4] = test system: A. baumannii ATCC 19,606; experiment: microbe, parasite or virus in culture; type: cell-based, Acinetobacter baumannii
Text: as §1, §2

[5] = test system: A. baumannii B-8.2–2 (XDR); experiment: microbe, parasite or virus in culture; type: cell-based, Acinetobacter baumannii
Text: as §1, §2

[6] = test system: A. baumannii C-8.2–1 (XDR); experiment: microbe, parasite or virus in culture; type: cell-based, Acinetobacter baumannii
Text: as §1, §2

[7] = test system: A. baumannii B-8.1–1 (MDR); experiment: microbe, parasite or virus in culture; type: cell-based, Acinetobacter baumannii
Text: as §1, §2

[8] = test system: A. baumannii B-8.1–2 (MDR); experiment: microbe, parasite or virus in culture; type: cell-based, Acinetobacter baumannii
Text: as §1, §2

[9] = test system: A. baumannii C-8.1–2 (MDR); experiment: microbe, parasite or virus in culture; type: cell-based, Acinetobacter baumannii
Text: as §1, §2

[10] = test system: A. baumannii isolate B-8.1-1; experiment: Disk diffusion test (CLSI), antibiotic susceptibility profile; type: cell-based, Acinetobacter baumannii; details: CLSI breakpoints
Experimental: (§3) ^aAntibiotic susceptibility profile of all isolated strains was evaluated by disk diffusion test, using the standard protocol guide of the Clinical and Laboratory Standards Institute (CLSI), and interpreted as S: Susceptible to standard dosing regimen; I: Intermediate; R: Resistant (in accordance with the criteria of CLST breakpoints).

[11] = test system: A. baumannii isolate D-10.1-2; experiment: as above; type: cell-based, Acinetobacter baumannii; details: CLSI breakpoints
Experimental: as §3

[12] = test system: A. baumannii isolate C-8.1-2; experiment: as above; type: cell-based, Acinetobacter baumannii; details: CLSI breakpoints
Experimental: as §3

[13] = test system: A. baumannii isolate C-8.2-1; experiment: as above; type: cell-based, Acinetobacter baumannii; details: CLSI breakpoints
Experimental: as §3

[14] = test system: A. baumannii isolate A-8.2-1; experiment: as above; type: cell-based, Acinetobacter baumannii; details: CLSI breakpoints
Experimental: as §3

[15] = test system: A. baumannii isolate B-8.2-2; experiment: as above; type: cell-based, Acinetobacter baumannii; details: CLSI breakpoints
Experimental: as §3

[16] = test system: A. baumannii isolate D-10.1-1; experiment: as above; type: cell-based, Acinetobacter baumannii; details: CLSI breakpoints
Experimental: as §3

[17] = test system: A. baumannii isolate B-8.1-2; experiment: as above; type: cell-based, Acinetobacter baumannii; details: CLSI breakpoints
Experimental: as §3

[18] = test system: A. baumannii ATCC 19,606; experiment: microbe, parasite or virus in culture; details: for fold increase of MIC: serial passages at half-MIC
Experimental: A. baumannii ATCC 19,606 was adjusted to approximately 10^6 CFU/ml in MHB. […] After 24 h incubation, bacterial suspensions of the wells at half-MIC concentration of tested agent were taken and washed 2 times with MHB to prepare the next initial-passage of bacteria. Twenty repeat passages were performed for each tested compound. Along with the test, a negative control was included: the MIC value of bacteria cultured in MHB-deionized water after 20 passages.

[19] = clinical isolate A-8.2–1 (XDR), blood
[20] = clinical isolate B-8.2–2 (XDR), respiratory tract
[21] = clinical isolate C-8.2–1 (XDR), sterile site
[22] = clinical isolate B-8.1–1 (MDR), respiratory tract
[23] = clinical isolate B-8.1–2 (MDR), respiratory tract
[24] = clinical isolate C-8.1–2 (MDR), sterile site
[25] = Acinetobacter baumannii, ATCC19
[26] = Acinetobacter baumannii, ATCC19, 24 h

| Compound | Antibiotic susceptibility profile [10] | Antibiotic susceptibility profile [11] | Antibiotic susceptibility profile [12] | Antibiotic susceptibility profile [13] | Antibiotic susceptibility profile [14] | Antibiotic susceptibility profile [15] | Antibiotic susceptibility profile [16] | Antibiotic susceptibility profile [17] | MBC ([3]; Acinetobacter baumannii) [µg/mL] | MIC ([3]; Acinetobacter baumannii) [µg/mL] | MBC [4, 25] [µg/mL] | MIC [4, 26] [µg/mL] | MBC ([5]; Acinetobacter baumannii) [µg/mL] | MIC ([5]; Acinetobacter baumannii) [µg/mL] | MBC ([6]; Acinetobacter baumannii) [µg/mL] | MIC ([6]; Acinetobacter baumannii) [µg/mL] | MBC ([7]; Acinetobacter baumannii) [µg/mL] | MIC ([7]; Acinetobacter baumannii) [µg/mL] | MBC ([8]; Acinetobacter baumannii) [µg/mL] | MIC ([8]; Acinetobacter baumannii) [µg/mL] | other results |
| --- | --- | --- | --- | --- | --- | --- | --- | --- | --- | --- | --- | --- | --- | --- | --- | --- | --- | --- | --- | --- | --- |
| Colistin | S | S | S | S | S | S | S | S |  |  |  |  |  |  |  |  |  |  |  |  | MBC [1]: 0.98(0.98) µg/ml; MIC [1]: 0.98(0.98) µg/ml; MBC [2]: 1.95(1.95) µg/ml; MIC [2]: 1.95(1.95) µg/ml; MBC [3, 19]: 1.95(1.95) µg/ml; MIC [3, 19]: 1.95(1.95) µg/ml; MIC ([4]; A. baumannii ATCC 19,606, broth microdilution (modified CLSI), MHB, 2–8 × 10^5 CFU/mL, 24 h, 37 °C, triplicate): 0.98(0.98) µg/ml; MBC ([4]; A. baumannii ATCC 19,606, colony count from non-turbid MIC wells, triplicate): 0.98(0.98) µg/ml; MBC [5, 20]: 1.95(1.95) µg/ml; MIC [5, 20]: 1.95(1.95) µg/ml; MBC [6, 21]: 0.98(0.98) µg/ml; MIC [6, 21]: 0.98(0.98) µg/ml; MBC [7, 22]: 1.95(1.95) µg/ml; MIC [7, 22]: 1.95(1.95) µg/ml; MBC [8, 23]: 0.98(0.98) µg/ml; MIC [8, 23]: 0.98(0.98) µg/ml; MBC [9, 24]: 1.95(1.95) µg/ml; MIC [9, 24]: 1.95(1.95) µg/ml |
| C[C@H]1COc2c(N3CCN(C)CC3)c(F)cc3c(=O)c(C(=O)O)cn1c23 [Levofloxacin] | S | R | R | R | R | R | I | R | 3.91 (≈ 10.8 µM) | 3.91 (≈ 10.8 µM) | ≤ 0.49 | ≤ 0.49 | 7.81 (≈ 21.6 µM) | 7.81 (≈ 21.6 µM) | 7.81 (≈ 21.6 µM) | 3.91 (≈ 10.8 µM) | 1.95 (≈ 5.4 µM) | ≤ 0.49 | 250 (≈ 692 µM) | 125 (≈ 346 µM) | MBC ([9]; Acinetobacter baumannii): 31.2 µg/mL (≈ 86.5 µM); MIC ([9]; Acinetobacter baumannii): 31.2 µg/mL (≈ 86.5 µM) |
| C[C@@H](O)[C@H]1C(=O)N2C(C(=O)O)=C(S[C@@H]3CN[C@H](C(=O)N(C)C)C3)[C@H](C)[C@H]12 [Meropenem] | S | R | R | R | R | R | R | R | 62.5 (≈ 163 µM) | 62.5 (≈ 163 µM) | 0.98 (≈ 2.56 µM) | 0.98 (≈ 2.56 µM) | 125 (≈ 326 µM) | 125 (≈ 326 µM) | 250 (≈ 652 µM) | 125 (≈ 326 µM) | 15.6 (≈ 40.8 µM) | 0.98 (≈ 2.56 µM) | 125 (≈ 326 µM) | 125 (≈ 326 µM) | MIC ([18]; Acinetobacter baumannii, ATCC19, 24 h, read-out: MIC after 20 passages): 15.6 µg/mL (≈ 40.8 µM); fold increase in MIC compared to the first passage ([18]; after passage 20): 16 fold; fold increase of MIC ([18]; day 4): 2 fold; fold increase of MIC ([18]; day 6): 4 fold; fold increase of MIC ([18]; day 11): eight; MBC ([9]; Acinetobacter baumannii): 125 µg/mL (≈ 326 µM); MIC ([9]; Acinetobacter baumannii): 125 µg/mL (≈ 326 µM) |
